Test results as given in US10669274B2, “Azaphenalene-3-one derivative, preparation method therefor, and application therof” (SUZHOU KANGRUN PHARMACEUTICALS INC., priority 2017, dated 2020).
pIC50: −log10 of the molar value.

Molecular target: T1, PARP1 (Homo sapiens, UniProt P09874)
T1 construct: purchased Trevigen
Test: Determination of PARP1 inhibitory activity (Universal PARP colorimetric assay kit, Trevigen)
Assay type: biochemical
Conditions: for pIC50: PARP1, OD at 450 nm, Logit method; for Inhibition (%): footnote: inhibition rate below 500 nM unless indicating otherwise
Description: Determination of PARP1 inhibitory activity
Method for determining PARP1 inhibitory activity:
(1) adding 50 μL of 1X PARP Buffer to each well, incubating for 30 min at room temperature, and drying;
(3) adding 25 μL of 1X PARP1 cocktail to each well and incubating for 60 min at room temperature;

T1 sequence (P09874 whole entry): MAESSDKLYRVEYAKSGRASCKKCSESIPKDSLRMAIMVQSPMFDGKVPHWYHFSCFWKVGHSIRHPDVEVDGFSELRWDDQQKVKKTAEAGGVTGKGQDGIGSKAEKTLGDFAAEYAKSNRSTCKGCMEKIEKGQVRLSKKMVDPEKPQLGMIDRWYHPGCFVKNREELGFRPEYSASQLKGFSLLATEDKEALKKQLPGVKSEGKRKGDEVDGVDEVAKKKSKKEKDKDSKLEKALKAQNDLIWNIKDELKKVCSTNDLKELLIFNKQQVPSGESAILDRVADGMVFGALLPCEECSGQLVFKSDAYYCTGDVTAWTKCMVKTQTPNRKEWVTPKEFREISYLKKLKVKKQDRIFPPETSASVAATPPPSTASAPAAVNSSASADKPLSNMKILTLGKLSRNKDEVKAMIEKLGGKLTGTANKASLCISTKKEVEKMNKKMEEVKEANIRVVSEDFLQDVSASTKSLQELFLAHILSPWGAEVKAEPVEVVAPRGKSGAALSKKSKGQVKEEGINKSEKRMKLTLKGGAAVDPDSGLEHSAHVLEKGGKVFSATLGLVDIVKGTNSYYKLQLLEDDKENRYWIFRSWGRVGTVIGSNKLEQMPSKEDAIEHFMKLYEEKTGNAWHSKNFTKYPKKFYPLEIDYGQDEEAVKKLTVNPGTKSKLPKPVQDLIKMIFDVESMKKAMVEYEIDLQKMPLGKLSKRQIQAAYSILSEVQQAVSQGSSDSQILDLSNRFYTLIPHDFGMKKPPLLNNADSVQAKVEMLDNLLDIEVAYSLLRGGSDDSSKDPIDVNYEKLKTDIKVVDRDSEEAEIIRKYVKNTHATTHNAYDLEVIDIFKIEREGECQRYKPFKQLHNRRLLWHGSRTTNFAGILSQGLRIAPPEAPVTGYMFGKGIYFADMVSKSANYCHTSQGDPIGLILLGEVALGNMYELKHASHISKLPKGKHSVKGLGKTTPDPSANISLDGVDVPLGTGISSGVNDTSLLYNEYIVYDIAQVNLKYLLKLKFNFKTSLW

Structure (SMILES) | inhibition at 1 µM (PARP1 enzyme inhibition rate, 1 μM) [%] | inhibition at 10 µM (PARP1 enzyme inhibition rate, 10 μM) [%] | pIC50 | Inhibition (%) (PARP1 enzyme inhibition rate)
NC(=O)c1ccc(I)c([N+](=O)[O-])c1 [BSI-201, reference compound] | 23.6 |  |  | 
NC(=O)c1cccc(N)c1 [Compound 3-AB, reference compound] |  | 16.9 |  | 
CC1=CN2C(=Nc3cccc4c(=O)[nH]nc2c34)C=C1 [Compound 9] |  |  | 7.09 | 87.58
O=c1[nH]nc2c3c(cccc13)N=C1C=CC(CNCC(F)(F)F)=CN12 [Compound A2] |  |  | 6.46 | 76.29
CCN(CC)CC1=CN2C(=Nc3cccc4c(=O)[nH]nc2c34)C=C1 [Compound A3] |  |  | 6.86 | 84.77
O=c1[nH]nc2c3c(cccc13)N=C1C=CC(CN3CCCC3)=CN12 [Compound A4] |  |  | 6.99 | 84.77
O=c1[nH]nc2c3c(cccc13)N=C1C=CC(Cn3ccnc3)=CN12 [Compound A5] |  |  | 6.78 | 95.72
O=c1[nH]nc2c3c(cccc13)N=C1C=CC(CN3CCCCC3)=CN12 [Compound A6] |  |  | 6.53 | 91.67
O=c1[nH]nc2c3c(cccc13)N=C1C=CC(CN3CCOCC3)=CN12 [Compound A7] |  |  | 6.71 | 73.37
CNC1CCN(CC2=CN3C(=Nc4cccc5c(=O)[nH]nc3c45)C=C2)CC1 [Compound A8] |  |  |  | 79.97
CN(C)C1CCN(CC2=CN3C(=Nc4cccc5c(=O)[nH]nc3c45)C=C2)CC1 [Compound A9] |  |  |  | 82.15
CN1CCC(N(C)CC2=CN3C(=Nc4cccc5c(=O)[nH]nc3c45)C=C2)CC1 [Compound A10] |  |  | 6.93 | 88.97
CN(CC1=CN2C(=Nc3cccc4c(=O)[nH]nc2c34)C=C1)C1CCN(c2ccccc2)CC1 [Compound A11] |  |  | 6.79 | 92.42
CN(CC1=CN2C(=Nc3cccc4c(=O)[nH]nc2c34)C=C1)C1CCN(Cc2ccccc2)CC1 [Compound A12] |  |  |  | 89.42
O=c1[nH]nc2c3c(cccc13)N=C1C=CC(CN3CCc4ccc(F)cc4C3)=CN12 [Compound A13] |  |  |  | 79.67
